Test results from patent publication US20250177366A1, “COMPOSITIONS AND METHODS FOR ALLEVIATING PAIN AND REDUCING ADVERSIVENESS OF STIMULI” (UNIVERSITY OF WASHINGTON, priority 2021, published 2025).

System: trigeminal neurons
Experiment: CaMPARI neuronal activity assay
Type: in vivo, Zebrafish (Danio rerio)
Conditions: 5 μM AS1; 28.5° C. or 37.5° C.
Excerpt: Brain regions associated with dopaminergic circuitry are specifically activated in the concurrent presence of AS1 and noxious stimuli. It was next sought to determine in an unbiased manner where in the zebrafish nervous system AS1 was exerting its effects by examining neuronal activity in the context of noxious stimuli. […] Many analgesics can act upon multiple different levels of pain transduction circuitry. For example, MORs can be found upon peripheral somatosensory neurons, spinal cord neurons, and numerous neuronal populations in the brain, and both exogenous and endogenous opioids can modulate the activity of any of these neurons (Corder et al., Annu. Rev. Neurosci. 2018; 41: 453-473). To investigate whether peripheral somatosensory neurons were also influenced by AS1, a neuronal activity assay upon transgenic zebrafish expressing the genetically-encoded calcium indicator CaMPARI in all neurons was performed. This fluorescent protein permanently photoconverts from green to red in the presence of a 405 nm light and high calcium (a proxy for neuronal activity), allowing “snapshots” of neuronal activity at a single time point (Fosque et al., Science. 2015; 347(6223):755-760). Fish were exposed to conditions of 28.5° C. or 37.5° C. with or without AS1 in the presence of a blue light, and then the trigeminal ganglia (TG) were surveyed for photoconverted neurons. […]

CC(C)c1ccc(C(=O)Nc2ccncc2)cc1 [AS1, 4-propan-2-yl-N-pyridin-4-ylbenzamide]
Number of photoconverted trigeminal neurons, AS1-treated vs control: No significant difference
